Data published in ChEMBL document CHEMBL4800729 (2021).

Experiments:
[1] = biological target: 5'-AMP-activated protein kinase catalytic subunit alpha-1 (Homo sapiens) (UniProt Q13131); experiment: AMPKalpha1(h) Millipore kinase panel; details: Compound concentration 1.0 uM
[2] = biological target: Casein kinase I isoform gamma-2 (Homo sapiens) (UniProt P78368); experiment: CK1gamma2(h) Millipore kinase panel; details: Compound concentration 1.0 uM
[3] = biological target: Casein kinase II subunit alpha (Homo sapiens) (UniProt P68400); experiment: CK2(h) Millipore kinase panel; details: Compound concentration 1.0 uM
[4] = biological target: Dual specificity protein kinase CLK1 (Homo sapiens) (UniProt P49759); experiment: CLK1(h) Millipore kinase panel; details: Compound concentration 1.0 uM
[5] = biological target: Serine/threonine-protein kinase DCLK3 (Homo sapiens) (UniProt Q9C098); experiment: DCAMKL3(h) Millipore kinase panel; details: Compound concentration 1.0 uM
[6] = biological target: Ephrin type-B receptor 2 (Homo sapiens) (UniProt P29323); experiment: EphB2(h) Millipore kinase panel; details: Compound concentration 1.0 uM
[7] = biological target: Fibroblast growth factor receptor 2 (Homo sapiens) (UniProt P21802); experiment: FGFR2(h) Millipore kinase panel; details: Compound concentration 1.0 uM
[8] = biological target: Fibroblast growth factor receptor 3 (Homo sapiens) (UniProt P22607); experiment: FGFR3(h) Millipore kinase panel; details: Compound concentration 1.0 uM
Chain of Fibroblast growth factor receptor 3 (Homo sapiens) (P22607 23-806 limits assumed): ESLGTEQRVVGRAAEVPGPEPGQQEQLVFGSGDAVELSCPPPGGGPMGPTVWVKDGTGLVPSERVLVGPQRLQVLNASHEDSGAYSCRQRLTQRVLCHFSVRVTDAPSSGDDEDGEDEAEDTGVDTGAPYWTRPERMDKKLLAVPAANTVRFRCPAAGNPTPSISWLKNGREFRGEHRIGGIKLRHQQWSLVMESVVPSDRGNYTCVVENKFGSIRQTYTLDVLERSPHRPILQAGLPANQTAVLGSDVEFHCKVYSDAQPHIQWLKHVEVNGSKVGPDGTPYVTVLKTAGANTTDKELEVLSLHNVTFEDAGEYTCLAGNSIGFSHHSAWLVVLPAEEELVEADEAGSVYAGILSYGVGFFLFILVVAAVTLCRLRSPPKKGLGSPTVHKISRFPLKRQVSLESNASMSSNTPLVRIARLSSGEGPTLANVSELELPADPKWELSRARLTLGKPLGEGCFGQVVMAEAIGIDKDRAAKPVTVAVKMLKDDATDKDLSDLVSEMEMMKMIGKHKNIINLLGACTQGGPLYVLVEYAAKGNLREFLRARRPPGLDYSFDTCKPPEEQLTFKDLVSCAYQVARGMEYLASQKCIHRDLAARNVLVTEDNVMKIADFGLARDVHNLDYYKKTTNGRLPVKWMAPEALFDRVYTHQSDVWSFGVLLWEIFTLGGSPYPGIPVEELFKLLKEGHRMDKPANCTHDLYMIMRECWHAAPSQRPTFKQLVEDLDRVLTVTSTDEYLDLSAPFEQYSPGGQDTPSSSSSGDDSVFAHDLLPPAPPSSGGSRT

[9] = biological target: Glycogen synthase kinase-3 alpha (Homo sapiens) (UniProt P49840); experiment: GSK3alpha(h Millipore kinase panel; details: Compound concentration 1.0 uM
[10] = biological target: MAP/microtubule affinity-regulating kinase 3 (Homo sapiens) (UniProt P27448); experiment: MARK3(h) Millipore kinase panel; details: Compound concentration 1.0 uM
Chain of MAP/microtubule affinity-regulating kinase 3 (Homo sapiens) (P27448 whole entry, looked up): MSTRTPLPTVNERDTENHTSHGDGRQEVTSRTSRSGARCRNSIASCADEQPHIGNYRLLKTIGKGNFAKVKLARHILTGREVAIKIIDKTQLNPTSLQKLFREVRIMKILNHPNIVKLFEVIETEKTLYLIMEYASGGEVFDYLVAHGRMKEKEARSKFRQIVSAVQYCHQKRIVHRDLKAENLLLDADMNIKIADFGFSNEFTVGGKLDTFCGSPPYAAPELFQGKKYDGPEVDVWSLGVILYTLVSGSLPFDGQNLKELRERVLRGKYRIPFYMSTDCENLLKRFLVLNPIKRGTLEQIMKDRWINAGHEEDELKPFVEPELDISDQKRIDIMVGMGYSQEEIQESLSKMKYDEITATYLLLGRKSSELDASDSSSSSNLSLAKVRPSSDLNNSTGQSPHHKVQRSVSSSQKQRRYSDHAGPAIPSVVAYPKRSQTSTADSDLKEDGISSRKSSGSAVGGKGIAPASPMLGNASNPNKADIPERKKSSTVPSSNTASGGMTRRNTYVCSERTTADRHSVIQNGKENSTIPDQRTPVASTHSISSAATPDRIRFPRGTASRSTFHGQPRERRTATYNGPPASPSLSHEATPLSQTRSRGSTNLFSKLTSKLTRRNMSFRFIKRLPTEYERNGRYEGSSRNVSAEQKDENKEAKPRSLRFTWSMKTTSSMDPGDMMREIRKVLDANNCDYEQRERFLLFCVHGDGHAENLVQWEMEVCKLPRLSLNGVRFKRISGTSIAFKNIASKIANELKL

[11] = biological target: Mitogen-activated protein kinase kinase kinase 2 (Homo sapiens) (UniProt Q9Y2U5); experiment: MEKK2(h) Millipore kinase panel; details: Compound concentration 1.0 uM
Chain of Mitogen-activated protein kinase kinase kinase 2 (Homo sapiens) (Q9Y2U5 whole entry): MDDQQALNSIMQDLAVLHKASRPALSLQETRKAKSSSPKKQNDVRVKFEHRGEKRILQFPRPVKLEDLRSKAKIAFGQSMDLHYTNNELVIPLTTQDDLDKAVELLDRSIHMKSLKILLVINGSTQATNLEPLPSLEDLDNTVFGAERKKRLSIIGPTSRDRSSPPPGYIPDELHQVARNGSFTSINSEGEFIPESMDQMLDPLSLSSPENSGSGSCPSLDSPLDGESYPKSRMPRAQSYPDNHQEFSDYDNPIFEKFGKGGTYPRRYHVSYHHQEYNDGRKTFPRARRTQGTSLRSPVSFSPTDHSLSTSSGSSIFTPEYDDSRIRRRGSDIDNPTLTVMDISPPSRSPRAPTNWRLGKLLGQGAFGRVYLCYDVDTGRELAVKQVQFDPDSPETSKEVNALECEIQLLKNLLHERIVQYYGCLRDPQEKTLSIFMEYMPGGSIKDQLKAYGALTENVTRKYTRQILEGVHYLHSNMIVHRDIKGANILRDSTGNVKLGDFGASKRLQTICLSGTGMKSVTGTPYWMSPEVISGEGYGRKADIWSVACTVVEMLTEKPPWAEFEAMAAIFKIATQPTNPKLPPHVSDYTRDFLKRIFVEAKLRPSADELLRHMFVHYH

[12] = biological target: Serine/threonine-protein kinase MRCK alpha (Homo sapiens) (UniProt Q5VT25); experiment: MRCKalpha(h) Millipore kinase panel; details: Compound concentration 1.0 uM
[13] = biological target: Ribosomal protein S6 kinase alpha-5 (Homo sapiens) (UniProt O75582); experiment: MSK1(h) Millipore kinase panel; details: Compound concentration 1.0 uM
[14] = biological target: Myosin light chain kinase 2, skeletal/cardiac muscle (Homo sapiens) (UniProt Q9H1R3); experiment: MYLK2(h) Millipore kinase panel; details: Compound concentration 1.0 uM
[15] = biological target: NUAK family SNF1-like kinase 2 (Homo sapiens) (UniProt Q9H093); experiment: NUAK2(h) Millipore kinase panel; details: Compound concentration 1.0 uM
[16] = biological target: Serine/threonine-protein kinase PAK 5 (Homo sapiens) (UniProt Q9P286); experiment: PAK5(h) Millipore kinase panel; details: Compound concentration 1.0 uM
[17] = biological target: Eukaryotic translation initiation factor 2-alpha kinase 3 (Homo sapiens) (UniProt Q9NZJ5); experiment: PEK(h) Millipore kinase panel; details: Compound concentration 1.0 uM
[18] = biological target: Phosphorylase b kinase gamma catalytic chain, skeletal muscle/heart isoform (Homo sapiens) (UniProt Q16816); experiment: PhKgamma1(h) Millipore kinase panel; details: Compound concentration 1.0 uM
[19] = biological target: RAC-gamma serine/threonine-protein kinase (Homo sapiens) (UniProt Q9Y243); experiment: PKBgamma(h) Millipore kinase panel; details: Compound concentration 1.0 uM
[20] = biological target: Protein kinase C gamma type (Homo sapiens) (UniProt P05129); experiment: PKCgamma(h) Millipore kinase panel; details: Compound concentration 1.0 uM
[21] = biological target: Protein kinase C iota type (Homo sapiens) (UniProt P41743); experiment: PKCiota(h) Millipore kinase panel; details: Compound concentration 1.0 uM
[22] = biological target: Protein-tyrosine kinase 2-beta (Homo sapiens) (UniProt Q14289); experiment: Pyk2(h) Millipore kinase panel; details: Compound concentration 1.0 uM
[23] = biological target: Receptor-interacting serine/threonine-protein kinase 1 (Homo sapiens) (UniProt Q13546); experiment: RIPK1(h) Millipore kinase panel; details: Compound concentration 1.0 uM
Chain of Receptor-interacting serine/threonine-protein kinase 1 (Homo sapiens) (Q13546 whole entry): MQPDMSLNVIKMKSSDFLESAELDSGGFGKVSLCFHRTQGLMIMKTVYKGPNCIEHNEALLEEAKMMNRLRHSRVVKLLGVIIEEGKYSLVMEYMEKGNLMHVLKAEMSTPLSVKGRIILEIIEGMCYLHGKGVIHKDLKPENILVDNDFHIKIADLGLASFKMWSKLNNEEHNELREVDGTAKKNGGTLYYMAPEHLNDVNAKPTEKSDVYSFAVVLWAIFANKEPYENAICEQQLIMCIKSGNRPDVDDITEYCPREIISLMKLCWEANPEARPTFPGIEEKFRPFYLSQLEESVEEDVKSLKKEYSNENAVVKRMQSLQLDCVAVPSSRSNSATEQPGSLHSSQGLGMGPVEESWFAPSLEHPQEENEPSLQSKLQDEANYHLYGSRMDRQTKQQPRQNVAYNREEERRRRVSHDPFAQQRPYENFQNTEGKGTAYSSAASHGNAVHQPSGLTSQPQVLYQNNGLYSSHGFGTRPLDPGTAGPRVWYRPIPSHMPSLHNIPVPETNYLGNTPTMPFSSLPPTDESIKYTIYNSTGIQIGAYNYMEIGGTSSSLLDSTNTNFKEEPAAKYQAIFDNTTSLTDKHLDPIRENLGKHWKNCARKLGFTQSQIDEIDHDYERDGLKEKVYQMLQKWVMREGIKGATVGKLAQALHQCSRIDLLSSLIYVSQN

[24] = biological target: Serine/threonine-protein kinase SBK1 (Homo sapiens) (UniProt Q52WX2); experiment: SBK1(h) Millipore kinase panel; details: Compound concentration 1.0 uM
[25] = biological target: Serine/threonine-protein kinase Sgk1 (Homo sapiens) (UniProt O00141); experiment: SGK(h) Millipore kinase panel; details: Compound concentration 1.0 uM
[26] = biological target: SNF-related serine/threonine-protein kinase (Homo sapiens) (UniProt Q9NRH2); experiment: SNRK(h) Millipore kinase panel; details: Compound concentration 1.0 uM
[27] = biological target: Serine/threonine-protein kinase 16 (Homo sapiens) (UniProt O75716); experiment: STK16(h) Millipore kinase panel; details: Compound concentration 1.0 uM
Chain of Serine/threonine-protein kinase 16 (Homo sapiens) (O75716 whole entry): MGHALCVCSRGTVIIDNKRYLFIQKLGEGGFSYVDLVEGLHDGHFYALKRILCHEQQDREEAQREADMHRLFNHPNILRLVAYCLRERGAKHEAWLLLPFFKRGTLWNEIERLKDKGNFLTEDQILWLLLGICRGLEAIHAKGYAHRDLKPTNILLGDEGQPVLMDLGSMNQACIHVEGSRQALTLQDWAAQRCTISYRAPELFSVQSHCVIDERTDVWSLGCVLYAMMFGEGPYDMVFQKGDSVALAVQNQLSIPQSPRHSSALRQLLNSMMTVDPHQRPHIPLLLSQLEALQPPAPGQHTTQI

[28] = biological target: Serine/threonine-protein kinase TAO2 (Homo sapiens) (UniProt Q9UL54); experiment: TAO2(h) Millipore kinase panel; details: Compound concentration 1.0 uM
[29] = biological target: Serine/threonine-protein kinase tousled-like 2 (Homo sapiens) (UniProt Q86UE8); experiment: TLK2(h) Millipore kinase panel; details: Compound concentration 1.0 uM
Chain of Serine/threonine-protein kinase tousled-like 2 (Homo sapiens) (Q86UE8 whole entry, looked up): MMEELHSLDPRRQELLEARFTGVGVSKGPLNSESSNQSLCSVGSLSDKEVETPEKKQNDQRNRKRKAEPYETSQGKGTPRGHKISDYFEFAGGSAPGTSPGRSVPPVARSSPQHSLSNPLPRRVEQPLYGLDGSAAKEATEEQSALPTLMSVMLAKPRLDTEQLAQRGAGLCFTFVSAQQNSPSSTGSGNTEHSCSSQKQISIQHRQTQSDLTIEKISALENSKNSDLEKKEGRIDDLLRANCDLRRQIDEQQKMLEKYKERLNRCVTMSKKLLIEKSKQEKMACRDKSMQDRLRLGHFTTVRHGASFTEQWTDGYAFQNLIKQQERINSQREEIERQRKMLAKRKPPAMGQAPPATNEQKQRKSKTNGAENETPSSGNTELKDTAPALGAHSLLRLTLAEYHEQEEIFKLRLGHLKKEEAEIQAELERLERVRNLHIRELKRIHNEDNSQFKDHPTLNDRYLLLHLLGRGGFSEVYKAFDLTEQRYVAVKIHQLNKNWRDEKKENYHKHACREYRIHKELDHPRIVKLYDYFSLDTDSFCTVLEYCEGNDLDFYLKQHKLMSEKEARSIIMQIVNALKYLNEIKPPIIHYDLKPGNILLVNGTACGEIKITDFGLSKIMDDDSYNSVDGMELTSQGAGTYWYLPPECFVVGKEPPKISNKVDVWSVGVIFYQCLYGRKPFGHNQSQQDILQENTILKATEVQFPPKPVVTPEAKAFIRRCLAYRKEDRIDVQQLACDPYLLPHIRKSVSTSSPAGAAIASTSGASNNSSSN

[30] = biological target: Testis-specific serine/threonine-protein kinase 1 (Homo sapiens) (UniProt Q9BXA7); experiment: TSSK1(h) Millipore kinase panel; details: Compound concentration 1.0 uM
[31] = biological target: Serine/threonine-protein kinase ULK2 (Homo sapiens) (UniProt Q8IYT8); experiment: ULK2(h) Millipore kinase panel; details: Compound concentration 1.0 uM
Chain of Serine/threonine-protein kinase ULK2 (Homo sapiens) (Q8IYT8 whole entry): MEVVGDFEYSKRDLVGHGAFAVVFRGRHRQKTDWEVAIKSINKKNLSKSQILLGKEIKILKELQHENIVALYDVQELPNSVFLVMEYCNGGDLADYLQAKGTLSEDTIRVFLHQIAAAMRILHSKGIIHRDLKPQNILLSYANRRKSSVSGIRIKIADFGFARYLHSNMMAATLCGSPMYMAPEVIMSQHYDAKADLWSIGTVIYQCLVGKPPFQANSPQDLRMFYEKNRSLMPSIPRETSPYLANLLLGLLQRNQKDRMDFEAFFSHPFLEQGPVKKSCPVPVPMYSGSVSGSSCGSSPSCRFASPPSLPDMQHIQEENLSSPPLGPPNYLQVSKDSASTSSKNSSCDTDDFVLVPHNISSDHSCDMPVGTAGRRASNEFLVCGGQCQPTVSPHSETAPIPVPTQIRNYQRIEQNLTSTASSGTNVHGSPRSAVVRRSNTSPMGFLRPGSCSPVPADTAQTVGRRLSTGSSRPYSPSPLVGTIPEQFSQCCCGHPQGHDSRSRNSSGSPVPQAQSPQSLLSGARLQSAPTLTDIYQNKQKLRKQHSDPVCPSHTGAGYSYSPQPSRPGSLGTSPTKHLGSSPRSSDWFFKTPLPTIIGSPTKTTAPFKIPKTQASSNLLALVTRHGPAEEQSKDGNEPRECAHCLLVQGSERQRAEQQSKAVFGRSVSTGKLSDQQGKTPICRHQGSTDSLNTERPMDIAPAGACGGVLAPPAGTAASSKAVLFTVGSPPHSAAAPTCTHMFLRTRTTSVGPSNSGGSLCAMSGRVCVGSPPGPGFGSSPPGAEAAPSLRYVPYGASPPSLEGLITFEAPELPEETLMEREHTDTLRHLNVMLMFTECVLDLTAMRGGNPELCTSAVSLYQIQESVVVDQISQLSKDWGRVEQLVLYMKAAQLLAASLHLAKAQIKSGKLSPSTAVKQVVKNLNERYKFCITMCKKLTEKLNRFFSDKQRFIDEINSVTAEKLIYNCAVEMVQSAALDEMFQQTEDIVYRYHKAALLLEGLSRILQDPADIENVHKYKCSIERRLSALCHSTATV

[32] = biological target: Mitogen-activated protein kinase kinase kinase 20 (Homo sapiens) (UniProt Q9NYL2); experiment: ZAK(h) Millipore kinase panel; details: Compound concentration 1.0 uM
[33] = biological target: PI3-kinase p110-alpha/p85-alpha (Homo sapiens) (UniProt P27986+P42336); experiment: PI3 Kinase (p110a/p85a)(h) Millipore kinase panel; type: protein-complex assay; details: Compound concentration 1.0 uM
[34] = biological target: Alpha-2A adrenergic receptor (Homo sapiens) (UniProt P08913); details: Compound concentration 10.0 uM
[35] = biological target: Glutamate NMDA receptor (Rattus norvegicus) (UniProt P35439+Q00959+Q00960+Q00961+Q62645+Q8VHN2+Q9R1M7); details: Compound concentration 10.0 uM
[36] = biological target: Mu-type opioid receptor (Homo sapiens) (UniProt P35372); details: Compound concentration 10.0 uM
[37] = biological target: Glucocorticoid receptor (Homo sapiens) (UniProt P04150); details: Compound concentration 10.0 uM
[38] = biological target: T1, Alpha-2B adrenergic receptor (Homo sapiens) (UniProt P18089); details: Compound concentration 10.0 uM
T1 sequence (whole entry): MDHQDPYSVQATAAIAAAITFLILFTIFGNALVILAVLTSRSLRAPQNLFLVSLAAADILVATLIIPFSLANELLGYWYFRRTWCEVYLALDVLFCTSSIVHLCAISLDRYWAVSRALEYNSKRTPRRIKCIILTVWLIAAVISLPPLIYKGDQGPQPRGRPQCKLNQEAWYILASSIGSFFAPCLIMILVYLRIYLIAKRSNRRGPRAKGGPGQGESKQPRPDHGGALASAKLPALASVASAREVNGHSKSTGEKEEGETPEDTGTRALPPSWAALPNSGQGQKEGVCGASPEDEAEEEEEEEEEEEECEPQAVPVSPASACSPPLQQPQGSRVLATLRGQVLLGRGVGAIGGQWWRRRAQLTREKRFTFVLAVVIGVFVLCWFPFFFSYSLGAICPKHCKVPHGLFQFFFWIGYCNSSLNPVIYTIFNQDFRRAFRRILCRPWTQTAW

[39] = biological target: 5-hydroxytryptamine receptor 2C (Homo sapiens) (UniProt P28335); details: Compound concentration 10.0 uM
[40] = biological target: 5-hydroxytryptamine receptor 2A (Homo sapiens) (UniProt P28223); details: Compound concentration 10.0 uM
[41] = biological target: Equilibrative nucleoside transporter 1/2/3/4 (Homo sapiens) (UniProt Q99808+Q7RTT9+Q14542+Q9BZD2); details: Compound concentration 10.0 uM

Measured: inhibition

CC[C@@H](Nc1c(C#N)c(-c2ccc(-c3cccc(C)c3F)cc2)nc2cnccc12)C(=O)O [BAY-091]
inactive: [1] -1.91% | [2] 12.4% | [3] 4.66% | [4] 3.74% | [5] 5.32% | [6] 1.4% | [7] 9.63% | [8] -1% | [9] 5.47% | [10] -4.67% | [11] 12.8% | [12] -4.99% | [13] 1.48% | [14] 7.84% | [15] 10.4% | [16] 1.42% | [17] 3.26% | [18] -9.06% | [19] 9.92% | [20] -0.39% | [21] 5.85% | [22] 10.7% | [23] 21.2% | [24] 4.02% | [25] -6.56% | [26] 10.3% | [27] 9.54% | [28] 10.3% | [29] 8.27% | [30] 14.2% | [31] 5.46% | [32] -4.94% | [33] 11% | [34] 5.7% | [35] -1% | [36] 13% | [37] 32% | [38] -2% | [39] 29% | [40] 19% | [41] 42%
